≈ marks a conversion by molar mass, not a printed value. Like-named read-outs stand apart in the source and are kept apart here.
Legend:
[1] = Aqueous equilibrated solubility; format: physicochemical; details: thermodynamic from solid; aqueous phosphate buffer 50 mM pH 7.4, shaken overnight at RT; pH 7.5 = pH of the solubilized fraction
Protocol: The studied compound was accurately weighted with a target concentration of 2 mg/mL in an aqueous phosphate buffer (50 mM at pH=7.4). The solution was shaken overnight (rock'n roll shaker) at RT and protected from light (about 24 hrs). The solution was filtered in plate filter device (microplate Millipore “Solvinert” with integrated PTFE filter; 0.45 μm) and the filtrate was dosed by LC/UV method.
The studied compound was accurately weighted with a target concentration of 0.1 mg/mL in DMSO. The solution was sonicated at RT and protected from light. The reference solution was dosed by a LC/UV method and pH of the solubilized fraction was measured.

CYP3A4 = target: T1, CYP3A4 (Homo sapiens, UniProt P08684); assay: CYP3A4 inhibition assay; format: in vitro ADME; details: human liver microsomes
T1 construct: containing human liver microsomes (0.1 mg/mL); from tissue; host or cells: human liver microsomes
Protocol: In the CYP3A4 inhibition assay, in vitro IC50 of a test compound as direct inhibitor against CYP3A4 is determined, by measuring the inhibition of the turn-over of probe substrates of CYP3A4 (Midazolam and Testosterone) to their specific metabolites i.e., 1′-Hydroxymidazolam, 6β-Hydroxytestosterone, in human liver microsomes.
Examples 2-3 of the present application and example No.37 from WO2015/082533 were tested for CYP3A4 inhibition using two different probes: midazolam and testosterone.
Test compound dissolved in DMSO at selected concentrations was added to a phosphate buffer (50 mM, pH 7.4) containing human liver microsomes (0.1 mg/mL), MgCl (6 mM) and EDTA (0.5 mM) and CYP3A probe substrate, either midazolam (3 μM). Test compound was evaluated at the concentrations 1, 3, 10 and 30 μM and the final DMSO concentration in the incubation was 0.5%. After addition of […] NADPH the mixture was incubated at 37° C. for 10 min (midazolam) or 30 min (testosterone). The reaction was terminated by addition of cold CH3CN containing internal standard, centrifuged and formation of the CYP3A specific metabolite (either 1′-hydroxymidazolam or 6-β-hydroxytestosterone) was quantified by UPLC-MS/MS. The relative CYP3A activity at each test concentration was calculated and IC50 values determined using XLfit.

[2] = tested on: IL-17A production in anti-CD3/anti-CD28 stimulated peripheral blood mononuclear cells (PBMCs); assay: Peripheral blood mononuclear cell (PBMC) IL-17 assay; format: cell-based; details: 120 h, human PBMCs, 5 days, IL-17A AlphaLISA, average of 11 human donors, read-out: PBMC IL-17 assay pIC50 Average (converted)
Protocol: Examples 2-3 of the present application and example No.37 from WO2015/082533 were tested for their ability to inhibit the IL-17A production in anti-CD3/anti-CD28 stimulated peripheral blood mononuclear cells (PBMCs) isolated from human blood.
This assay is designed to measure the levels of IL-17A secreted from anti-CD3/anti-CD28 stimulated PBMCs with the aim of measuring the inhibition of RORγ mediated IL-17A production.
The assay medium consists of 90% RPMI 1640 (Lonza), 10% heat-inactivated fetal bovine serum (FBS, Lonza) and 100 U/mL penicillin/streptomycin solution.
Anti-CD3 antibody (BD Pharmingen) was diluted to 10 μg/ml in PBS (Lonza). 30 μL of 10 μg/ml anti-CD3 solution was added to the inner 60 wells of a 96-well cell culture treated U-bottom plate (Greiner). Plates were incubated overnight (16-24 hours) at 37° C. and 5% CO2. […]
After incubation, the plates were spun down at 1500 rpm for 4 minutes and the supernatant was collected. Subsequently, the IL-17A levels in the supernatants was determined using an IL-17A AlphaLISA kit (Perkin Elmer) according to the manufacturer's protocol.
The half maximum inhibitory concentration (IC50) values for the test compounds were calculated from the IL-17A signal using GraphPad Prism software (GraphPad Software).

[3] = target: T2, hERG (human Ether-à-go-go-Related Gene) potassium channel (Homo sapiens, UniProt Q12809); assay: hERG channel patch-clamp assay; format: cell-based; details: CHO cells stably expressing hERG, whole-cell patch-clamp, room temperature; read-out: hERG inhibition Assay IC50
T2 construct: expressed in transfected cells
Protocol: The hERG assay, in which hERG is brought to expression in CHO cells, provides information of the interaction of a compound with the hERG channel. The amplitude of hERG potassium channel tail currents are recorded under control and the compound solution at different concentrations. Then the IC50 value is determined from the dose-response curve.
Examples 2-3 of the present application and example No. 37 of WO2015/082533 were tested in vitro against the hERG (human Ether-à-go-go-Related Gene) potassium channel.
Frozen CHO (Chinese hamster ovary) cells stably expressing hERG channels were thawed and seeded on glass coverslips in petri dishes. Cells were cultured in HAM's F-12 media supplemented with 10% fetal bovine serum, 100 IU/mL penicillin, 100 μg/mL streptomycin and 500 μg/mL G418 (Invitrogen, Carlsbad, Calif.) in an atmosphere of 95% air/5% CO2 at 37° C. CHO cells were ready for patch-clamping after culture for 1-5 days. hERG currents were recorded at room temperature using the whole-cell patch-clamp technique with an Axopatch 200B amplifier (Molecular Devices, Sunnyvale Calif.). […] Currents were analyzed using the pCLAMP suite of software (Molecular Devices). […]

RORγ = target: T3, RORγ (Homo sapiens, UniProt P51449); assay: RORγ GAL4 reporter gene assay; format: cell-based; details: 293FT cells, luciferase readout; average of 5 experiments; read-out: RORγ GAL4 reporter gene assay pIC50 Average (converted)
T3 construct: expressed in transfected cells; host or cells: 293FT cells (Invitrogen), expression vector pFN26A (Promega)
T3 sequence (P51449 269-508 limits assumed): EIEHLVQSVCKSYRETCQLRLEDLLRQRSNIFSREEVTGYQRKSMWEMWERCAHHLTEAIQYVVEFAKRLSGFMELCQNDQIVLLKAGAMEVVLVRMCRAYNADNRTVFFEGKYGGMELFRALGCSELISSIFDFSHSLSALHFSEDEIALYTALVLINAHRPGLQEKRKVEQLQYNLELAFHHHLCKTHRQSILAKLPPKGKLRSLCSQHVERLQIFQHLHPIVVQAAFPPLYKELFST
Protocol: Examples 2-3 of the present […] application and example No. 37 from WO2015/082533 were tested for their ability to inhibit RORγ activity in a RORγ GAL4 reporter gene assay.
A GAL4 one-hybrid reporter system employing luciferase readout was established to determine inhibition of RORγ in 293FT cells. The RORγ ligand-binding domain (LBD) was fused to the yeast GAL4 DNA binding domain (DBD) and placed under the control of the human cytomegalovirus (CMV) immediate early promoter, using expression vector pFN26A (Promega) and standard recombinant DNA cloning methods. To serve as a control in the assay, a similar vector was generated in which the GAL4-DBD was fused to Herpes simplex virus protein 16 (VP16), a constitutive transcriptional activator.
To monitor the inhibitory effect of compounds on RORγ, a transcriptional reporter construct was used. The pGL4.35 vector (Promega) contains nine copies of the GAL4 Upstream Activator Sequence (UAS). […]
The day after transfection, cells were plated into 96 well plates, test compound was added and the plates were incubated overnight. Subsequently, the firefly luciferase activity was quantified using luciferase detection reagent and luminescence readout. […]
For compound screening, the cells were harvested (as described above) and counted. […]

[4] = midazolam probe, read-out: CYP3A4 inhibition Assay IC50, Midazolam probe
[5] = testosterone probe, read-out: CYP3A4 inhibition Assay IC50, Testosterone probe

T1 sequence (P08684 whole entry): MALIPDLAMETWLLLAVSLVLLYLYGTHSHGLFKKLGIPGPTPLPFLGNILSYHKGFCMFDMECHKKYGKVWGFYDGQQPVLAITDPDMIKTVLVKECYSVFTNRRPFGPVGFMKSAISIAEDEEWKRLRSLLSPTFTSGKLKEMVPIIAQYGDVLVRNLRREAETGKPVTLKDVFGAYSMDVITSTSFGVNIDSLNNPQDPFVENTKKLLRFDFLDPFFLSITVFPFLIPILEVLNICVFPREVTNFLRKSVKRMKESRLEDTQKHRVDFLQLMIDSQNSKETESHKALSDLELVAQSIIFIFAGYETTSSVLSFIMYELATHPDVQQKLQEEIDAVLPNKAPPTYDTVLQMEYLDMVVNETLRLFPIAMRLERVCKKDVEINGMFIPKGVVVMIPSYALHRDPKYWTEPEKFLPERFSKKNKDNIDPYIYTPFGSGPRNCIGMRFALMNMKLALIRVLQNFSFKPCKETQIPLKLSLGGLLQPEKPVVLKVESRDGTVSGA
T2 sequence (Q12809 whole entry): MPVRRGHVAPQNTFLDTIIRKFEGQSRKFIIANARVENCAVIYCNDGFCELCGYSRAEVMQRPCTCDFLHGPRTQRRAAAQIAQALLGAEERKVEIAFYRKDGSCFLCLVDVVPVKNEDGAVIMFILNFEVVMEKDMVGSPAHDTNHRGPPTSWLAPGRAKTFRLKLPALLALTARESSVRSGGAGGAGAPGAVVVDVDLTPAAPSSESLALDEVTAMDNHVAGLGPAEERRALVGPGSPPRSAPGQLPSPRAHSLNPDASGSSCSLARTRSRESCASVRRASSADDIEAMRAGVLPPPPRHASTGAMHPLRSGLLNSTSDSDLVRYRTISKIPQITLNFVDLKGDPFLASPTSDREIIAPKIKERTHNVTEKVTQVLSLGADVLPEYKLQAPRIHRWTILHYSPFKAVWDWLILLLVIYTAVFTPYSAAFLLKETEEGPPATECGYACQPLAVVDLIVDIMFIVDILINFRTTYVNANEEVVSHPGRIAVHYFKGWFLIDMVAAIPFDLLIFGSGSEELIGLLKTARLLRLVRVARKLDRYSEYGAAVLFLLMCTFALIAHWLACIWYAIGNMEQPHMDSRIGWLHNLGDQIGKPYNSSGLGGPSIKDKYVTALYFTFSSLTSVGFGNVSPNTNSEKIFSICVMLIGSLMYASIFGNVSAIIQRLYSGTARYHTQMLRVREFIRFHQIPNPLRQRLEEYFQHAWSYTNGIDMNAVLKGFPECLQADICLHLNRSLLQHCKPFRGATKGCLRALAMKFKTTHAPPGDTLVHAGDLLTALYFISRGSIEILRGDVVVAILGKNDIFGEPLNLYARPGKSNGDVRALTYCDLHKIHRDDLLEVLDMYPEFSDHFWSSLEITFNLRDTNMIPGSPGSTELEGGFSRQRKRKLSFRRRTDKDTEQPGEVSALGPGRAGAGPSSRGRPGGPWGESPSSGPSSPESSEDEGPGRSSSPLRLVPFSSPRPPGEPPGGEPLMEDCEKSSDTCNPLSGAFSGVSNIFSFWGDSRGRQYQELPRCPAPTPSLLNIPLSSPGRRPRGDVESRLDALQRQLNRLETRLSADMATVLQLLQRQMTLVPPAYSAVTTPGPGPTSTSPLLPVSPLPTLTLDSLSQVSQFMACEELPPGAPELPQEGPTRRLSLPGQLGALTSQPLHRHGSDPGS

SMILES | solubility at 24 h [1] | IC50 (CYP3A4; [4]) | IC50 (CYP3A4; [5]) | IC50 (RORγ) | IC50 [2] | IC50 [3]
O=C(Cc1ccc([S@@+]([O-])CC2CC2)cc1)Nc1ccc([C@@](O)(C(F)F)C(F)(F)F)cc1 (single isomer, unassigned) [Example 10] | 94.8 µg/mL (≈ 205 µM) | – | – | – | – | –
O=C(Cc1ccc([S@@+]([O-])CC2CC2)cc1)Nc1ccc([C@](O)(C(F)F)C(F)(F)F)cc1 (single isomer, unassigned) [Example 11] | 92.5 µg/mL (≈ 200 µM) | – | – | – | – | –
O=C(Cc1ccc(S(=O)(=O)CC2CC2)cc1)Nc1ccc([C@@](O)(C(F)F)C(F)(F)F)cc1 [Example 2, (+)-2-[4-(cyclopropylmethylsulfonyl)phenyl]-N-[4-[(1R)-1-(difluoromethyl)-2,2,2-trifluoro-1-hydroxy-ethyl]phenyl]acetamide] | < 1 µg/mL | 24 µM | 13 µM | 0.0398 µM | 0.0631 µM | 14.2 µM
O=C(Cc1ccc(S(=O)(=O)CC2CC2)cc1)Nc1ccc([C@](O)(C(F)F)C(F)(F)F)cc1 [Example 3, (−)-2-[4-(cyclopropylmethylsulfonyl)phenyl]-N-[4-[(1S)-1-(difluoromethyl)-2,2,2-trifluoro-1-hydroxy-ethyl]phenyl]acetamide] | < 1 µg/mL | > 30 µM | 16 µM | 0.0126 µM | 0.0251 µM | 11.2 µM

Further lines, with some results ahead:

solubility at 24 h [1] | IC50 (CYP3A4; [4]) | IC50 (CYP3A4; [5]) | IC50 (RORγ) | SMILES | IC50 [2] | IC50 [3]
94.4 µg/mL (≈ 205 µM) | – | – | – | O=C(Cc1ccc([S@+]([O-])CC2CC2)cc1)Nc1ccc([C@@](O)(C(F)F)C(F)(F)F)cc1 (single isomer, unassigned) [Example 12] | – | –
93 µg/mL (≈ 202 µM) | – | – | – | O=C(Cc1ccc([S@+]([O-])CC2CC2)cc1)Nc1ccc([C@](O)(C(F)F)C(F)(F)F)cc1 (single isomer, unassigned) [Example 13] | – | –
99.4 µg/mL (≈ 215 µM) | – | – | – | O=C(Cc1ccc([S+]([O-])CC2CC2)cc1)Nc1ccc(C(O)(C(F)F)C(F)(F)F)cc1 (centres unmarked) [Example 9, 2-[4-(cyclopropylmethylsulfinyl)phenyl]-N-[4-[1-(difluoromethyl)-2,2,2-trifluoro-1-hydroxy-ethyl]phenyl]acetamide] | – | –

Reference: US20190119204A1, “ROR GAMMA (RORy) MODULATORS” (Lead Pharma Holding B.V., priority 2016, published 2019)
